Where two headings read alike, the source gives them in different places.
Legend:
[1] = target: T1, human GABAA α5β3γ2s receptor (Homo sapiens, UniProt P18507+P31644); assay: Assay A: in vitro inhibition of 3H-flumazenil binding, HEK cells expressing the human GABAA α5β3γ2s receptor
T1 sequence (P18507 1-475): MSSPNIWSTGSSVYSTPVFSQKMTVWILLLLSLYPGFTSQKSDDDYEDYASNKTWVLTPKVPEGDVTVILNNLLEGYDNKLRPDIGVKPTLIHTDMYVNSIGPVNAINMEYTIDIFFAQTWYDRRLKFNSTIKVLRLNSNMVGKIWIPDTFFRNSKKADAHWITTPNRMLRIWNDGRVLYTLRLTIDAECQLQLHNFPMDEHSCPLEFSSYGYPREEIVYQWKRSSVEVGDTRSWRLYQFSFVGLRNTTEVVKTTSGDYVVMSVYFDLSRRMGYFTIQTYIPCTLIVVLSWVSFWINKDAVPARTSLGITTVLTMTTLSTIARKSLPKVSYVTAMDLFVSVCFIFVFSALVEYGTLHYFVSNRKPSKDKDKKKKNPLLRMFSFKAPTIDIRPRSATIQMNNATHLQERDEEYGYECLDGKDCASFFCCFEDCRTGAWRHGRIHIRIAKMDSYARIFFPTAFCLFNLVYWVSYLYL
T1 sequence (P31644 1-462): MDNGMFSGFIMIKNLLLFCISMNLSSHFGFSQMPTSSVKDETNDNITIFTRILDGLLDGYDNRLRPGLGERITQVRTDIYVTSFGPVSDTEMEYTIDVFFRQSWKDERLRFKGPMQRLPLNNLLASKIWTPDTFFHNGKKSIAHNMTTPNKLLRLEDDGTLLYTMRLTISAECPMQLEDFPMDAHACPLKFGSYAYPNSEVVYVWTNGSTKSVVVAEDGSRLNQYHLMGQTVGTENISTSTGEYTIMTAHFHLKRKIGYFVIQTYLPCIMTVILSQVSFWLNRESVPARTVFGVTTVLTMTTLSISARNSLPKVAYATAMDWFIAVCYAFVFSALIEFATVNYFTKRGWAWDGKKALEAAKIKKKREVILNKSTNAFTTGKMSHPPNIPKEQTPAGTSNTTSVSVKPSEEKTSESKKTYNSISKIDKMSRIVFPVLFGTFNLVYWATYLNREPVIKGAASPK
Method: Cell Cultures and Membrane Preparation
HEK-293 cell lines with stable expression of recombinant human GABAA α5ß3 γ2s receptors (plasmid H46/E9/B10) are seeded in T175 polystyrene flasks or roller bottles (1700 cm^2, Fisher Scientific CCI-431191), and cultured (37° C., 5% CO2) in Dulbecco's Modified Eagle Medium (DMEM) with GlutaMAX™ supplemented with 10% fetal bovine serum and one or both of the following antibiotics: hygromycin B ([…]; γ2 subunit) or G418 (0.5 mg/ml; […]).
When the cultures reach confluency, the DMEM is removed and the cells are washed (10 ml for T175 flasks; 50 ml for roller bottles) once in Dulbecco's Phosphate Buffered Saline (DPBS). Following addition of DPBS to the cultures (10 ml for T175 flasks; 100 ml for roller bottles) for approximately 5 min cells are easily detached from the surface by shaking or tapping the flask gently. The cell suspension is transferred to Falcon tubes and centrifuged at 23,500×g for 10 min at 2° C. The pellet is washed once in 15 ml Tris-citrate buffer (50 mM, pH 7.1) using an Ultra-Turrax homogenizer and centrifuged at 2° C. for 10 min at 27,000×g. The washed pellet is re-suspended in 15 ml Tris-citrate buffer and frozen at −80° C. until the day of the binding experiment.
On the day of the experiment the cell membrane preparation is thawed and centrifuged at 2° C. for 10 min at 27,000×g. The pellet is re-suspended, using an Ultra-Turrax homogenizer in Tris-citrate buffer, to 15-50 µg protein per assay and then used for binding assays.
Non-specific binding is determined using clonazepam ([…]).
All dilutions of test compounds and incubation of assay are performed in glass vials/96-vial plates. […] Compounds are dissolved in 100% DMSO (10 mM stock), diluted in 48% ethanol-water, and tested in triplicate in serial 1:3 or 1:10 dilutions. When screening large numbers of compounds only one concentration of each compound is tested in single wells. Reference compounds are not included routinely, but for each experiment performed total and nonspecific binding is compared to data obtained during validation of the assay.
Binding is either terminated by rapid filtration onto
1) Whatman GF/C glass fibre filters using a Brandel Cell harvester, followed by 5 washes with 1 ml ice-cold buffer or onto 2) UniFilter GF/C glass fibre filter plates using a Tomtec cell harvester, followed by washing with approximately 5 ml ice-cold buffer.
The amount of radioactivity on the filters is determined by conventional liquid scintillation counting using a
1) Tri-Garb™ counter (PerkinElmer Life and Analytical Sciences) for separate large filters or
2) Topcount™ counter (PerkinElmer Life and Analytical Sciences) for 96-well filter plates.
Specific binding is total binding minus non-specific binding.
The IC50 value for a test compound is determined based on the equation: […]
where B is the binding in percentage of total specific binding; C is the concentration of test compound; and n is the Hill coefficient. For screening purposes n is set to 1. The IC50 value is calculated from the concentration response curves by the non-linear regression method using the curve-fitting program GraphPad Prism.
The Ki value for a test compound can be calculated from the IC50 value using the equation by Cheng and Prusoff: […]

α5ß2 γ2 GABAA Receptor = target: T2, α5ß2 γ2 GABAA Receptor (Homo sapiens, UniProt P18507+P31644); assay: Assay B: in vitro evaluation of modulation of α5ß2γ2 GABAA receptor, two-electrode voltage clamp in oocytes; assay type: cell-based; settings: for EC50: co-application with 0.5 μM GABA, oocytes, read-out: Assay B: GABAA α 5 β 3 γ 2 EC50
T2 sequence (P31644 32-462): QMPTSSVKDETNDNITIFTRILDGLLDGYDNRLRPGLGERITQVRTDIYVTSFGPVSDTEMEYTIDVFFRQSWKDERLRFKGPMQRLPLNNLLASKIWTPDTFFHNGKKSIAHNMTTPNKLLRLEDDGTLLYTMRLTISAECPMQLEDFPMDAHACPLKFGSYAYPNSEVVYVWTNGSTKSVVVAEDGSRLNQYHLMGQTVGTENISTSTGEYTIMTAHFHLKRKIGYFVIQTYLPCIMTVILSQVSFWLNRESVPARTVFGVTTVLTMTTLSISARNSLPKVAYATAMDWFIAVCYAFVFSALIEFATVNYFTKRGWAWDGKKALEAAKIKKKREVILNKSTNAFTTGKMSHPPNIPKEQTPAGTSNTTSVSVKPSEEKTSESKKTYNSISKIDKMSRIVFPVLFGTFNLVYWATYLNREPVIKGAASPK
T2 sequence (P18507 40-376 limits assumed): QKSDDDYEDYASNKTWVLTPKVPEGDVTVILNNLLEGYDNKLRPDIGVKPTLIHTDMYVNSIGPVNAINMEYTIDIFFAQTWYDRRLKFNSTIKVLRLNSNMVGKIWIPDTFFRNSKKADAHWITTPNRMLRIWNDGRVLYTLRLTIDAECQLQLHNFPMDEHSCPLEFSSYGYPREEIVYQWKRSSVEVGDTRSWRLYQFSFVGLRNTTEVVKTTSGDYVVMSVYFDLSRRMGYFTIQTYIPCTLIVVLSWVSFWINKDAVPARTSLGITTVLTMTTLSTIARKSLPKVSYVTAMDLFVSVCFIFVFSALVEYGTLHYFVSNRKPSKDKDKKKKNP
Method: Assay B: In Vitro Evaluation of Modulation of α5ß2 γ2 GABAA Receptor.
Modulatory efficacy of compounds of formular (I) is determined electrophysiological recordings in oocytes using the two-electrode voltage clamp (TEVC) technique. Oocytes are injected with cRNA for human GABAA receptor subunits α5, ß2 and γ2 in a 3:1:3 ratio and modulatory efficacy is evaluated by co-applications with a submaximal EC5-20 GABA concentration (0.5 μM) termed GABA control. As a standard, the compounds are tested in five concentrations (3.16, 0.316, 0.0316, 0.00316 and 0.000316 μM) on each oocyte starting with the lowest concentration. Background subtracted peak current amplitudes are normalized to the respective GABAcontrol current, converted to % change and depicted +/−S.E.M. as a function of increasing compound concentrations. Plotted datapoints are fitted to the empirical Hill equation using non-linear regression. 95% confidence intervals for maximal efficacy (Bottom) and potency (Log EC50) are derived from this fitting routine.

[2] = read-out: Assay A: GABAA α 5 β 3 γ 2s Ki
[3] = comparison compounds of WO 2020/016433, read-out: Assay A: GABAA α5 β3 γ2S Ki

| SMILES | Ki [1, 2] [nM] | Assay B: GABAA α 5 β 3 γ 2 Emax vs GABA (α5ß2 γ2 GABAA Receptor) [%] | Ki [1, 3] [nM] | EC50 (α5ß2 γ2 GABAA Receptor) [nM] | Ki ([1]; compounds of the present invention, read-out: Assay A: GABAA α5 β3 γ2S Ki) [nM] |
| --- | --- | --- | --- | --- | --- |
| Cn1nnc(-c2ccc(C(F)F)cn2)c1COc1ccc(-c2cncc(C#N)c2)nn1 [Example 27] | 12 | -6.7 |  |  |  |
| Cn1ccc(-c2ccc(OCc3c(-c4ccc(C(F)F)cn4)nnn3C)nn2)n1 [Example 34] | 25 | -17 |  | 4.2 |  |
| CCc1nccn1-c1ccc(OCc2c(-c3ccc(C(F)F)cn3)nnn2C)nn1 [Example 45] | 150 | -17.3 |  | 23 |  |
| Cc1nnn(-c2ccc(C(F)F)cn2)c1COc1ccc(-n2ccnn2)nn1 [Example 44] | 14 | -17.7 |  | 14.1 |  |
| Cc1nnn(-c2ccc(C(F)F)cn2)c1COc1ccc(-c2cncc(C#N)c2)nn1 [Example 13] | 6 | -9 |  | 44.5 |  |
| CCn1cc(-c2ccc(OCc3c(C)nnn3-c3ccc(C(F)F)cn3)nn2)ccc1=O [Example 21] | 10 | -4 |  |  |  |
| CCc1cn(-c2ccc(OCc3c(-c4ccc(C(F)F)cn4)nnn3C)nn2)nc1N [Example 40] | 8 | -10.3 |  | 32.7 |  |
| Cc1nnn(-c2ccc(C(F)F)cn2)c1COc1ccc(-c2cccc(C#N)n2)nn1 [Example 11] | 9 | -13.5 |  | 37.5 |  |
| CNc1cc(-c2ccc(OCc3c(-c4ccc(C(F)F)cn4)nnn3C)nn2)ccn1 [Example 26] | 14 | -5.3 |  |  |  |
| CSc1ccc(-c2ccc(OCc3c(C)nnn3-c3ccc(C(F)F)cn3)nn2)cn1 [Example 10] | 9 | -8 |  | 75 |  |
| Cc1nnn(-c2ccc(C(F)F)cn2)c1COc1ccc(-n2cnc(C(N)=O)c2)nn1 [Example 36] | > 8890 |  |  |  |  |
| CNc1cc(C)nn1-c1ccc(OCc2c(-c3ccc(C(F)F)cn3)nnn2C)nn1 [Example 41] | 2 | -21.3 |  | 43.7 |  |

Now from value to compound:

| Ki [1, 2] [nM] | Assay B: GABAA α 5 β 3 γ 2 Emax vs GABA (α5ß2 γ2 GABAA Receptor) [%] | Ki [1, 3] [nM] | EC50 (α5ß2 γ2 GABAA Receptor) [nM] | Ki ([1]; compounds of the present invention, read-out: Assay A: GABAA α5 β3 γ2S Ki) [nM] | SMILES |
| --- | --- | --- | --- | --- | --- |
|  |  | 0.249 |  |  | Cc1nnn(-c2ccc(C(F)F)cc2)c1COc1ccc(-c2cnccn2)nn1 [reference compound] |
|  |  | 0.126 |  |  | Cc1nnn(-c2ccc(C(F)F)cc2)c1COc1ccc(-n2cnc(C#N)c2)nn1 [reference compound] |
| 220 | -26.3 |  | 10.4 |  | Cn1nnc(-c2ccc(C(F)F)cn2)c1COc1ccc(-n2ccnc2C#N)nn1 [Example 46] |
| 15 | -27.3 |  | 29 |  | Cn1nnc(-c2ccc(C(F)F)cn2)c1COc1ccc(-n2cc(Cl)cn2)nn1 [Example 51, 3-(4-chloro-1H-pyrazol-1-yl)-6-({4-[5-(difluoromethyl)pyridin-2-yl]-1-methyl-1H-1,2,3-triazol-5-yl}methoxy)pyridazine] |
| 14 | -34.7 |  | 15 |  | Cc1nnn(-c2ccc(C(F)F)cn2)c1COc1ccc(-n2cc(F)cn2)nn1 [Example 54, 3-({1-[5-(difluoromethyl)pyridin-2-yl]-4-methyl-1H-1,2,3-triazol-5-yl}methoxy)-6-(4-fluoro-1H-pyrazol-1-yl)pyridazine] |
| 32 | -20.3 |  | 24.3 | 0.032 | Cc1nnn(-c2ccc(C(F)F)cn2)c1COc1ccc(-n2cncn2)nn1 [Example 55] |
|  |  | 0.12 |  |  | Cc1nnn(-c2ccc(C(F)F)cc2)c1COc1ccc(-c2ccn[nH]2)nn1 [reference compound] |
|  |  | 0.546 |  |  | Cc1nnn(-c2ccc(C(F)F)cc2)c1COc1ccc(-n2cncn2)nn1 [reference compound] |
| 120 | -7 |  | 15.5 |  | Cc1nccn1-c1ccc(OCc2c(-c3ccc(C(F)F)cn3)nnn2C)nn1 [Example 47] |

Reference: patent US20230286946A1, “DIFLUOROMETHYL-PYRIDIN-2-YL TRIAZOLES” (Boehringer Ingelheim International GmbH, priority 2020, published 2023)
